Reference: patent publication US20200171132A1, “METHODS OF INHIBITING FUNGAL CERAMIDE SYNTHASE FOR TREATMENT OF CRYPTOCOCCUS NEOFORMANS INFECTION” (The Research Foundation for the State University of New York, priority 2017, published 2020)

Tested on: fungal Cer1 (Cn Cer1)
Test: High throughput ceramide synthase assay (96-well, NBD-sphingosine, SPE)
Type: biochemical, Cryptococcus neoformans
Settings: 1 micromolar; wells contained 10 compounds each; 1 hour at 37° C.
Method: The compounds were first diluted to 1 mM each (1:10 dilution with 10% DMSO) with a physiological buffer (YNB medium buffered with HEPES at pH 7.4 containing 2% glucose) and subsequently diluted to 300 μM (1:3.3 dilution) with the same medium (3% DMSO). A 100-μl aliquot of this solution was placed into each well of a 96-well master plate and stored at −20° C. until use. Each well in the screening master plates contained 10 compounds at 1 μM each. The ceramide synthase reaction was performed in a 96-well plate format using fungal Cer1 (Cn Cer1) or human ceramide synthase (Hu-Cer1, -Cer2, -Cer3, -Cer4, -Cer5, or -Cer6) enzyme, containing NBD-Sphingosine (NBD-Sph) (Avanti Polar Lipids) and 18:0 Coenzyme A (Stearoyl Coenzyme A, Avanti Polar Lipids) as substrates using the following concentrations: 10 μM NBD-Sph and 50 μM fatty acid CoA. The reaction mixture was prepared in HEPES buffer (20 mM HEPES, pH 7.2, 25 mM KCl, 250 mM sucrose, and 2 mM MgCl2). Library compounds were added and plate incubated for 1 hour at 37 C. The lipid product (NBD-ceramide) was separated using solid phase extraction (SPE) column chromatography using Strata® C18-E, 96 well plates (Phenomenex). Reaction product was measured using a plate reader.
The Cn Cer1 enzyme is expressed using the pYES-GAL1 galactose inducible system in Saccharomyces cerevisiae whereas the mammalian ceramide synthases (Cer1-6) are induced with tetracycline using the Tet-On System in HCT-116 cells under the control of Geneticin and Blasticidin. Cn Cer1 or Hu Cer1-6 enzymes were extracted using the tag system and enriched in microsomal preparation. Before using the enzymes in the plate screening, each preparation was tested for ceramide activity using the TLC assay illustrated in FIG. 11, to make sure the ceramide synthase activity works as expected. Appropriate negative controls (e.g. Cn Cer1 on glucose or Hu Cer1 in absence of tetracycline) were included in each plate during the screening.
The ceramide synthase assay was performed using NBD-Sphingosine (NBD-Sph) (Avanti polar lipids) and 18:0 Coenzyme A (Stearoyl Coenzyme A, Avanti polar lipids) as substrates using the following concentrations: 10 μM NBD-Sph and 50 μM fatty acid CoA. Enzyme(s)—ceramide synthases—were prepared using microsome purification of the yeasts or mammalian expression system. For yeast, the S. cerevisiae strain BY4741 expressing C. neoformans ceramide synthase 1 using the pYES GAL1 expression system was grown in 200 ml of liquid YNB 2% galactose medium for 16 hours. The same strain grown in the same medium but containing 2% glucose was used as a negative control because the Cn Cer1 gene is under the control of the galactose promoter (GAL1). Cells were then harvested by centrifugation, resuspended in 2 ml of Lysis Buffer (20 mM HEPES/KOH, pH 7.4, 25 mM KCl, 2 mM MgCl2, 250 mM sorbitol) and 50 μl of proteinase inhibitor mixture (Sigma-Aldrich)/g of cells, and broken by bead-bashing at 4° C. for 1.5 h. Cell debris were removed by centrifuging at 1000 g at 4° C. for 10 min. The supernatant was loaded on a 60% (w/w) sucrose cushion and centrifuged at 100,000 g for 1 h. The microsomes were collected from the interphase, snap frozen in liquid nitrogen, and stored at −80° C. until use.
The high throughput assays were adapted from the Avanti Ceramide synthase assay kit (https://avantilipids.com/product/640011/). The reactions were first downsized to 20 μl in a 96-well plate format using human ceramide synthases (Cer1, […], Cer3, Cer4, Cer5, or Cer6) along with Cn Cer1. Lipid product (NBD-ceramide) was separated using solid phase extraction (SPE) column chromatography using Strata® C18-E, 96 well plates (Phenomenex). The reaction product was measured using a plate reader, as in FIG. 12. The Z′ score of the assay is 0.80194, which is considered excellent (FIG. 12).
An initial screening yielded compounds 1-10 (Table 3). […]

Row | Compound | % reduction in activity (inhibition of Cn Cer1 synthse activity) [%]
1 | CC(C)Nc1cc(-c2ccc3c(c2)OCO3)nc(N)n1 [Compound 1] | 94.43
2 | OCc1cc(-c2ccc3ccccc3n2)ccc1F [Compound 2] | 94.43
3 | C=CCc1cc(-c2[nH]cnc2-c2ccccc2)cc(OC)c1O [Compound 3] | 94.43
4 | Cc1ccsc1C(=O)N1CCN2C(=O)CNC(=O)C2C1 (stereo not drawn) [Compound 4] | 94.43
5 | Cn1ccnc1CN(Cc1cc2ccccc2o1)C1CC1 [Compound 5] | 94.43
6 | CCN(C/C=C/c1ccccc1)C(=O)c1cc2cccnc2nc1C [Compound 6] | 94.43
7 | CCN(CC1CCCCO1)C(=O)c1cccc(-n2cnnc2)c1 (stereo not drawn) [Compound 7] | 94.43
8 | CC(C)CN1CC(C(=O)NCc2nncn2C2CCCCC2)CC1=O (stereo not drawn) [Compound 8] | 94.43
9 | CC(Cn1ccc2ccccc21)NC(=O)c1ccc(-n2cnnc2)cc1 (stereo not drawn) [Compound 9] | 94.43
10 | CCN(C/C=C/c1ccccc1)C(=O)c1ccc(-n2cnnc2)cc1 [Compound 10] | 94.43
11 | Cc1ccc(F)cc1NC(=O)N1CCOC2(CNCCOC2)C1 (stereo not drawn) [Compound 11] | 87.67
12 | c1cncc(COC2CCN(Cc3ccc(-c4cc[nH]n4)s3)CC2)c1 [Compound 12] | 87.67
13 | CN1CC2(CCCN(C(=O)c3ccc4c(c3)OCCN4C)CC2)OC1=O (stereo not drawn) [Compound 13] | 87.67
14 | CN(Cc1cc2cc(F)ccc2[nH]1)C(=O)c1ccccc1C1CCNC1 (stereo not drawn) [Compound 14] | 87.67
15 | CCn1c(C2CCN(C(=O)C(N)CC3CCCC3)CC2)nn(C)c1=O (stereo not drawn) [Compound 15] | 87.67
16 | Cc1nc[nH]c1-c1nccn1C(C)c1cccs1 (stereo not drawn) [Compound 16] | 87.67
17 | Clc1cccc2ccc(CN3CCn4cncc4C3)nc12 [Compound 17] | 87.67
18 | COc1cccc2c1OCCCN(C(=O)c1cn3c(n1)CNCC3)C2 [Compound 18] | 87.67
19 | FC(F)(F)C1CCN(Cc2cc3n(n2)CCNC3)CC1 [Compound 19] | 87.67
20 | Fc1cccc(CN2CCN(Cc3cnc(NCC4CCCO4)nc3)CC2)c1 (stereo not drawn) [Compound 20] | 87.67
21 | CCCCN(Cc1ccco1)C(=O)c1cc(C)[nH]c(=O)c1 [Compound 21] | 86.1
22 | O=C(NCCC1=CCCN(CCCF)C1)c1cccs1 [Compound 22] | 86.1
23 | CCN(Cc1ccc(-n2cccn2)cc1)CC1CCOCC1 [Compound 23] | 86.1
24 | O=C(NCC1(Cn2cccn2)CC1)c1ccccc1N1CCOCC1 [Compound 24] | 86.1
25 | C/C(=C\c1ccccc1)CN1CCC(CN)C1 (stereo not drawn) [Compound 25] | 86.1

Row | Compound | % reduction in activity (inhibition of Cn Cer1 synthse activity) [%]
26 | CCC[C@@H]1C[C@H](NC(C)=O)C[C@H](C2CCCCC2)O1 [Compound 26] | 86.1
27 | CCc1ncc(C(=O)N2CCN(CC(C)C)C(=O)C2C)cn1 (stereo not drawn) [Compound 27] | 86.1
28 | COc1cc(F)c(C2CC(=O)Nc3cc(N4CCNC4=O)ccc32)cc1OC (stereo not drawn) [Compound 28] | 86.1
29 | Cc1cc2c(cc1O)NC(=O)CC2c1c[nH]nc1-c1ccc(F)cc1 (stereo not drawn) [Compound 29] | 86.1
30 | Cc1nc(CC(=O)NCCSc2nnc(C)s2)cs1 [Compound 30] | 86.1
31 | O=C1NCC2(CCCN(c3ncnc4[nH]ccc34)CC2)O1 (stereo not drawn) [Compound 31] | 85.73
32 | O=C1NCC2(CCCN(c3nnnn3-c3ccccc3)CC2)O1 (stereo not drawn) [Compound 32] | 85.73
33 | Cc1nc(C(C)C)ncc1C(=O)N(C)Cc1snnc1C [Compound 33] | 85.73
34 | CCn1c(C2CCN(C(=O)C(C)n3cncn3)CC2)nn(C)c1=O (stereo not drawn) [Compound 34] | 85.73
35 | CCSc1nc(CC(=O)N2[C@@H]3CC[C@H]2C[C@@H](O)C3)cs1 [Compound 35] | 85.73
36 | Cc1noc(C)c1-n1c(CCCN2CCOCC2)n[nH]c1=O [Compound 36] | 85.73
37 | CC(C)Cc1n[nH]c(Cn2nc(Cc3ccccc3)c3ccccc3c2=O)n1 [Compound 37] | 85.73
38 | Cc1cc(C)n2nc(C(=O)N3CCC4(CN(C)C(=O)O4)C3)cc2n1 (stereo not drawn) [Compound 38] | 85.73
39 | CN(C)CC1COCCN(Cc2c(-c3ccccc3)nc3ncccn23)C1 (stereo not drawn) [Compound 39] | 85.73
40 | NC(=O)c1cccc(CC2CCN(C(=O)CCn3ccccc3=O)C2)c1 (stereo not drawn) [Compound 40] | 85.73
41 | O=C(Nc1cccnc1)c1ccc(-c2cccc3cccnc23)o1 [Compound 41] | 84.91
42 | CN1CCC2(CC1)CCN(C(=O)c1cccc(Oc3ncccn3)c1)C2 [Compound 42] | 84.91
43 | CC(=O)N(C)CC1=CCCN(Cc2cc(F)c(F)cc2F)C1 [Compound 43] | 84.91
44 | O=C1NCC(=O)N2CCN(C(=O)c3cccc4c3NCCC4)CC12 (stereo not drawn) [Compound 44] | 84.91
45 | CC(=O)N(CCc1ccc(F)cc1)CC1=CCCN(CCO)C1 [Compound 45] | 84.91
46 | CNc1ncc(CN(C)C(=O)c2cnn[nH]2)cn1 [Compound 46] | 84.91
47 | Cc1cc2[nH]c(CN3CCCC3c3nc4cc(F)ccc4[nH]3)cc(=O)n2n1 (stereo not drawn) [Compound 47] | 84.91
48 | O=C(c1cnn[nH]1)N1CCC(Oc2ncccn2)CC1 [Compound 48] | 84.91
49 | Cc1ccccc1-n1cc(CN(C)C(=O)c2ccccc2C2CCNC2)cn1 (stereo not drawn) [Compound 49] | 84.91
50 | CCc1nc(C)sc1CNc1nc(-c2cccnc2)nc2c1cnn2C [Compound 50] | 84.91

Tested on: Pma1
Test: Glucose dependent medium acidification (plasma membrane H+-ATPase activity)
Type: cell-based, Cryptococcus neoformans
Settings: Δgcs1 strain upon treatment
Method: Glucose-dependent medium acidification was monitored by a modification of a procedure described previously (Perlin, Brown et al. 1988, Soteropoulos, Vaz et al. 2000). Cultures of Cn strain WT, Δcer1, Δcer1+CER1, Δgcs1 were grown to mid-log Phase in YPD. The next day, these cells were transferred to DMEM at pH 4.0 and allowed to grow under shaking conditions for 24 hours. These cells were then harvested and washed using 100 mM KCl, pH 5.0. These pellets were then resuspended in 10 ml KCl, pH 5.0 and incubated under shaking condition at 30° C. These samples were then stored at 4° C. overnight prior to use. For the assay, cells were concentrated to a final A590 of approximately 2.0. 20 μl cells along with 155 μl of bromophenolblue (50 μg/ml) in 100 mM KCl, pH 5.0. 20 μl 20% (w/v) glucose was added to initiate the reaction. Medium acidification was monitored at 590 nm over a period of 5 hours (data point every 3 mins) in a microplate reader (SpectraMax M5).

Row | Compound | Pma1 activity
51 | Aureobaisdin A [AbA] | reduced
